Data: US5387578A (priority 1990, dated 1995)

How the values were obtained:
[1] = test system: LoVo-Doxo-resistant (LoVo/DX) cells; assay type: cell-based; conditions: human, lovo/dx vs lovo cells, 240 min
[2] = Release of 13b from conjugates in acetate buffer at 37° C.; assay type: physicochemical; conditions: pH 5, 37° C., ionic strength 0.05M, HPLC
Description: In Table 4 are reported t50 % of release of 3'deamino-3'[2(S) -methoxy-4-morpholinyl]doxorubicin (13b) from the conjugates at […] (acetate buffer) at 37° C.
Release of 13b from conjugates at pH 5 and
temperature 37° C. in acetate buffer^(7).
^(6) Time requests for the release of 50% of free drug 13b. Determine
by HPLC using a calibration curve of compound 13b.
^(7) Ionic strenght 0.05M.

Compound	R.I. = Resistance Index = (IC50 LoVo/DX)/(IC50 LoVo) [1]	t50% (time for the release of 50% of free drug 13b) [2]
COc1cccc2c1C(=O)c1c(O)c3c(c(O)c1C2=O)C[C@@](O)(C(=O)CO)C[C@@H]3O[C@H]1C[C@H](N2CCO[C@H](OC)C2)[C@H](O)[C@H](C)O1 [Compound 13b]	2	–
COc1cccc2c1C(=O)c1c(O)c3c(c(O)c1C2=O)C[C@@](O)(C(=O)CO)C[C@@H]3O[C@H]1C[C@H](N)[C@H](O)[C@H](C)O1 [Doxorubicin]	36.3	–
conjugate of Poly(Glu-Na, Ala.Tyr) (1:1:1) and 14-O-(1-piperazinocarbonylmethyloxy-cyclohexyl)-3'-deamino[2(S)-methoxy-4- morpholinyl]doxorubicin [1^viii]	–	3.5 h
copolymer of 3-methacryloylamino-2-hydroxypropane and 14-O-{1-[4-(6-methacryloylaminocaproyl)piperazinlyl]-carbonylmethyloxy-cyclohexyl}-3'-deamino-3'[2(S)-methoxy-4-morpholinyl]doxorubicin [1^vii]	–	20 h
